Laboratory results from publication PMC5915369 (Anticancer research, 2015).

Columns and labels:
platelet aggregation = details: could lead to internal bleeding side effects; cited from earlier work
[1] = system: HIF1α transcriptional activity; format: cell-based; details: Homo sapiens, 24 h, read-out: Menu IC50 ± SEM

SMILES	inhibition of platelet aggregation (platelet aggregation)	IC50 [1] [nM]
OCc1ccc(-c2nn(Cc3ccccc3)c3ccccc23)o1 [YC-1, 3-(5′-hydroxymethyl-2′-furyl)-1-benzyl indazole]	strong inhibition of platelet aggregation	–
CN1C(=O)[C@]2(Cc3cn([C@]45C[C@@]67SS[C@@](CO)(C(=O)N6[C@H]4Nc4ccccc45)N(C)C7=O)c4ccccc34)SS[C@@]1(CO)C(=O)N2C [Chetomin]	–	40 ± 10
